Where “and” joins values, the source holds several entries; their conditions need not be identical. Equal values may be shown once. Numbers after ± are expanded uncertainties.
Assay: xn = mol fraction of the nth substance listed
Details: 100 kPa, Liquid, Electromagnetic levitation / mass taken directly, volume taken from sample image

[Pd] [palladium] + [Fe]
Details	mass density
1414 K, x1 = 0.6	8979 ± 390 kg/m3
1437 K, x1 = 0.6	8950 ± 390 kg/m3
1440 K, x1 = 0.8	9717 ± 240 kg/m3
1476 K, x1 = 0.6	8899 ± 390 kg/m3
1483 K, x1 = 0.6	8904 ± 390 kg/m3
1483 K, x1 = 0.8	9676 ± 240 kg/m3
1500 K, x1 = 0.4	8297 ± 360 kg/m3
1512 K, x1 = 0.4	8275 ± 360 kg/m3
1536 K, x1 = 0.6	8856 ± 390 kg/m3
1543 K, x1 = 0.8	9619 ± 240 kg/m3
1551 K, x1 = 0.6	8825 ± 380 kg/m3
1562 K, x1 = 0.4	8208 ± 360 kg/m3
1590 K, x1 = 0.6	8791 ± 380 kg/m3
1598 K, x1 = 0.8	9769 ± 240 kg/m3
1613 K, x1 = 0.6	8779 ± 380 kg/m3
1613 K, x1 = 0.8	9499 ± 240 kg/m3
1624 K, x1 = 0.8	9547 ± 240 kg/m3
1625 K, x1 = 0.4	8150 ± 360 kg/m3
1625 K, x1 = 0.8	9735 ± 240 kg/m3
1630 K, x1 = 0.2	7824 ± 210 kg/m3
1633 K, x1 = 0.6	8756 ± 380 kg/m3
1651 K, x1 = 0.2	7615 ± 200 kg/m3
1663 K, x1 = 0.6	8735 ± 380 kg/m3
1665 K, x1 = 0.8	9694 ± 250 kg/m3
1667 K, x1 = 0.6	8709 ± 380 kg/m3
1668 K, x1 = 0.2	7805 ± 210 kg/m3
1672 K, x1 = 0.8	9450 ± 240 kg/m3
1681 K, x1 = 0.2	7789 ± 210 kg/m3 and 7591 ± 200 kg/m3
1707 K, x1 = 0.8	9656 ± 250 kg/m3
1711 K, x1 = 0.4	8076 ± 350 kg/m3
1713 K, x1 = 0.2	7775 ± 210 kg/m3
1715 K, x1 = 0.6	8695 ± 380 kg/m3
1721 K, x1 = 0.2	7550 ± 200 kg/m3
1725 K, x1 = 0.6	8660 ± 380 kg/m3
1742 K, x1 = 0.2	7739 ± 210 kg/m3
1749 K, x1 = 0.8	9379 ± 240 kg/m3
1767 K, x1 = 0.8	9602 ± 250 kg/m3
1772 K, x1 = 0.2	7506 ± 200 kg/m3
1789 K, x1 = 0.6	8633 ± 380 kg/m3
1790 K, x1 = 1	10670 ± 170 kg/m3
1795 K, x1 = 1	10672 ± 170 kg/m3
1796 K, x1 = 1	10652 ± 170 kg/m3
1802 K, x1 = 1	10686 ± 170 kg/m3
1809 K, x1 = 1	10670 ± 170 kg/m3
1820 K, x1 = 1	10677 ± 180 kg/m3
1829 K, x1 = 0.4	7971 ± 350 kg/m3
1831 K, x1 = 1	10627 ± 180 kg/m3
1832 K, x1 = 0.4	7965 ± 350 kg/m3
1832 K, x1 = 0.8	9536 ± 250 kg/m3
1838 K, x1 = 0.2	7700 ± 210 kg/m3
1841 K, x1 = 0.8	9278 ± 240 kg/m3
1843 K, x1 = 1	10654 ± 180 kg/m3
1856 K, x1 = 1	10601 ± 180 kg/m3
1864 K, x1 = 0.2	7646 ± 210 kg/m3
1872 K, x1 = 0.2	7426 ± 200 kg/m3
1878 K, x1 = 1	10558 ± 180 kg/m3
1879 K, x1 = 0.6	8530 ± 380 kg/m3
1889 K, x1 = 0.6	8544 ± 380 kg/m3
1889 K, x1 = 1	10592 ± 180 kg/m3
1890 K, x1 = 1	10575 ± 180 kg/m3
1916 K, x1 = 0.8	9434 ± 250 kg/m3
1917 K, x1 = 1	10529 ± 180 kg/m3
1935 K, x1 = 1	10478 ± 180 kg/m3
1951 K, x1 = 1	10465 ± 180 kg/m3

— the NIST ThermoML archive (doi:10.1016/j.jct.2018.09.037)
